The values that follow come from ChEMBL document CHEMBL1130828, “Synthesis and biological activities of phenyl piperazine-based peptidomimetic growth hormone secretagogues” (Bioorg Med Chem Lett, 1998).

In general, EC50 refers to the concentration giving half of the maximal effect.

The species named for this test is Rattus norvegicus. The test can be described thus: Concentration required for GH-releasing activity in the rat pituitary cell assay was determined in vitro. Format: functional. The conditions noted are these: Pituitary gland cell.
The compound `CC(C)(N)C(=O)N[C@H](CCCc1ccccc1)C(=O)N1CCN(c2ccccc2NS(=O)(=O)CC(=O)O)CC1` came in with an EC50 of 2.3 nM. Consider `CC(C)(N)C(=O)N[C@H](CCCc1ccccc1)C(=O)N1CCN(c2ccccc2NS(C)(=O)=O)CC1`, for which the EC50 turned out to be 6.3 nM. This EC50 lies about 2.7-fold higher than the previous one. Compound `Cc1ccccc1N1CCN(C(=O)[C@@H](CCCc2ccccc2)NC(=O)C(C)(C)N)CC1` had an EC50 of 100 nM. `Cc1ccccc1N1CCN(C(=O)[C@@H](Cc2c[nH]c3ccccc23)NC(=O)C(C)(C)N)CC1` showed an EC50 of 150 nM. Next, `CC(C)S(=O)(=O)Nc1ccccc1N1CCN(C(=O)[C@@H](CCCc2ccccc2)NC(=O)C(C)(C)N)CC1`: 2.8 nM; `CC(C)c1ccccc1N1CCN(C(=O)[C@@H](Cc2c[nH]c3ccccc23)NC(=O)C(C)(C)N)CC1`: 210 nM. In the case of `CC(C)(N)C(=O)N[C@H](Cc1c[nH]c2ccccc12)C(=O)N1CCN(c2ccccc2Cl)CC1`, the EC50 stood at 760 nM.

`COC(=O)CS(=O)(=O)Nc1ccccc1N1CCN(C(=O)[C@@H](CCCc2ccccc2)NC(=O)C(C)(C)N)CC1` displayed an EC50 of 4.5 nM. Against the preceding compound, the EC50 is about 170-fold lower. To `COc1ccccc1N1CCN(C(=O)[C@@H](Cc2c[nH]c3ccccc23)NC(=O)C(C)(C)N)CC1` belongs 490 nM; to `CC(C)(N)C(=O)N[C@H](CCCc1ccccc1)C(=O)N1CCN(c2ccccc2NS(=O)(=O)C(F)(F)F)CC1`, 200 nM.
